In patent publication US20250099420A1, “SMALL MOLECULE MODULATORS OF GPR139 COMPLEX” (University of Florida Research Foundation, Incorporated, priority 2022, published 2025):
pEC50: −log10 of the molar value. Read-outs that look alike come from different tables or passages of the source.

Experiments:
parental HEK cells = test: HEK parental Agonist Counterscreen Assay (non-transfected cells); assay type: cell-based; settings: for Averaged Max % Response (±St. Dev.): activity relative to known control
Excerpt: The high control for the agonist counterscreen was Forskolin not acetylcholine.

GPR139 = target: T1, GPR139 (Homo sapiens, UniProt Q6DWJ6); test: GPR139 Agonist titration / agonist counterscreen assay (calcium detection, HEK-GPR139 cells); assay type: cell-based; set-up: expressed in transfected cells; host or cells: HEK Aequorin cells, Maxcyte transient transfection; settings: GPR139 Agonist Activity; for pEC50: read-out: EC50; for Averaged Max % Response (±St. Dev.): activity relative to known control
T1 sequence (Q6DWJ6 1-353): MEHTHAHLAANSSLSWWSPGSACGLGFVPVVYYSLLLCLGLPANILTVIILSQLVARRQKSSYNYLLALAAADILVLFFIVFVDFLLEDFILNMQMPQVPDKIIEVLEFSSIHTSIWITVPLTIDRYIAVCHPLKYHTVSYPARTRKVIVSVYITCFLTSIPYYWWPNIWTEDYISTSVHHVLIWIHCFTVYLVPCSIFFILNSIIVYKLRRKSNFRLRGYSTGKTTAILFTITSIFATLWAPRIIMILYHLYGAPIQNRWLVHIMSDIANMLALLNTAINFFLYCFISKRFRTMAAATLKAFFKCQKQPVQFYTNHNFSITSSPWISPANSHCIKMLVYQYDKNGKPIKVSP
Procedure: GPR activity was assessed using a calcium detection assay. […] Negative control samples were treated with DMSO. […] Intracellular calcium was measured using Calcium 5.

[1] = HEK Agonist Activity section of Table 4 (parental HEK counterscreen)
[2] = Homo sapiens, HEK293, HEK Agonist Activity section of Table 4 (parental HEK counterscreen)
[3] = values printed in E-notation without unit

| SMILES | Lipophilic Efficiency (logD) (parental HEK cells; HEK Agonist Activity section) | Lipophilic Efficiency (logP) (parental HEK cells; HEK Agonist Activity section) | Efficiency Ligand (GPR139) | Hill Slope (GPR139) | Lipophilic Efficiency (logD) (GPR139) | Lipophilic Efficiency (logP) (GPR139) | pEC50 (GPR139; HEK-GPR139 cells) | Averaged Max % Response (±St. Dev.) (GPR139) [%] | Lipophilic Efficiency (logD) (GPR139; based on logD) | Lipophilic Efficiency (logP) (GPR139; based on logP) | Hill Slope (GPR139; fitted dose-response curve) | Efficiency Ligand (GPR139; ligand efficiency) | pEC50 (GPR139; [3]) | pEC50 (parental HEK cells; [1]) | Averaged Max % Response (±St. Dev.) (parental HEK cells; HEK Agonist Activity section) [%] | pEC50 (parental HEK cells; [2]) | further results |
| --- | --- | --- | --- | --- | --- | --- | --- | --- | --- | --- | --- | --- | --- | --- | --- | --- | --- |
| Cc1ccc(CN2CCN(CC(=O)N3CC(C)CC(C)C3)C2=O)cc1 (stereo not shown) [SR-01000150389] | 2.56 | 2.56 |  |  |  |  |  | 112.97 ± 21.84 | 4.43 | 4.43 | 0.95 | 0.38 | 6.72 | < 4.85 | 0.25 ± 10.83 |  |  |
| O=C(CSCc1ccc(Cl)cc1Cl)NNC(=O)c1ccccc1 [SR-01000295701] |  |  |  |  |  |  |  | 126.44 ± 4.55 | 5.48 | 5.47 |  | 0.56 | > 9.15 |  |  |  | Lipophilic Efficiency (logD) (parental HEK cells; HEK Agonist Activity): 1.19; Lipophilic Efficiency (logP) (parental HEK cells; HEK Agonist Activity): 1.17; Averaged Max % Response (±St. Dev.) (parental HEK cells; HEK Agonist Activity): −4.01 ± 2.60%; pEC50 (parental HEK cells; HEK Agonist Activity, parental non-transfected HEK cells): < 4.85 |
| COc1cc(OC)cc(C(=O)NNC(=O)COc2cc(C)c(Cl)c(C)c2)c1 [SR-01000358286] | 1.79 | 1.78 | 0.31 | 1.77 | 2.95 | 2.95 | 6.01 | 88.73 ± 9.49 |  |  |  |  |  | < 4.85 | 17.27 ± 10.49 |  |  |
| CCCCCCC(=O)NNC(=O)c1c(O)c2ccccc2n(CCC)c1=O [SR-01000360839] | 4.41 | 2.59 | 0.28 | 1.91 | 4.95 | 3.13 | 5.39 | 57.17 ± 6.17 |  |  |  |  |  | < 4.85 | 0.18 ± 6.80 |  |  |
| O=C(CN1C(=O)NC2(CCCc3ccccc32)C1=O)N1CCCCCC1 (stereo not shown) [SR-01000075116] | 2.72 | 2.72 |  |  |  |  |  | 81.52 ± 3.66 | 4.72 | 4.72 | 0.99 | 0.37 | 6.85 | < 4.84 | 4.31 ± 1.95 |  |  |
| CCOC(=O)c1ccc(CSc2nnc(N)s2)cc1 [SR-01000273754] | 1.95 | 1.95 |  |  |  |  |  | 86.25 ± 6.17 | 4.03 | 4.03 | 0.89 | 0.51 | 6.93 | < 4.85 | 2.38 ± 11.60 |  |  |
| CC(NC(=O)CN1CCN(Cc2ccc(Cl)cc2)C1=O)c1ccccc1 (stereo not shown) [SR-01000105214] | 2.13 | 2.13 |  |  |  |  |  | 114.03 ± 9.34 | 3.89 | 3.89 | 0.51 | 0.36 | 6.61 |  | −5.28 ± 2.10 | < 4.85 |  |
| C#CC1=C(CCCc2ccc(CC)cc2)CC(CCc2ccccc2CC)=C1 [SR-01000363853] | 1.79 | 1.79 | 0.29 | 0.77 | 2.73 | 2.73 |  | 87.50 ± 15.37 |  |  |  |  |  |  | −6.20 ± 7.21 | < 4.85 |  |
| NC1=NC(=O)/C(=C\c2ccc(Cl)cc2Cl)S1 [SR-01000310833] | 1.78 | 1.78 | 0.56 | 0.71 | 3.32 | 3.32 | 6.39 | 80.08 ± 5.83 |  |  |  |  |  | < 4.85 | 13.95 ± 0.93 |  |  |

Further lines, with some results ahead:

| Lipophilic Efficiency (logD) (parental HEK cells; HEK Agonist Activity section) | Lipophilic Efficiency (logP) (parental HEK cells; HEK Agonist Activity section) | Efficiency Ligand (GPR139) | Hill Slope (GPR139) | Lipophilic Efficiency (logD) (GPR139) | Lipophilic Efficiency (logP) (GPR139) | pEC50 (GPR139; HEK-GPR139 cells) | Averaged Max % Response (±St. Dev.) (GPR139) [%] | Lipophilic Efficiency (logD) (GPR139; based on logD) | Lipophilic Efficiency (logP) (GPR139; based on logP) | Hill Slope (GPR139; fitted dose-response curve) | Efficiency Ligand (GPR139; ligand efficiency) | pEC50 (GPR139; [3]) | SMILES | pEC50 (parental HEK cells; [1]) | Averaged Max % Response (±St. Dev.) (parental HEK cells; HEK Agonist Activity section) [%] | pEC50 (parental HEK cells; [2]) | further results |
| --- | --- | --- | --- | --- | --- | --- | --- | --- | --- | --- | --- | --- | --- | --- | --- | --- | --- |
| 1.72 | 1.67 | 0.27 | 1.13 | 2.21 | 2.16 | 5.42 | 68.48 ± 7.96 |  |  |  |  |  | CCn1c2ccccc2c2cc(C3C(C#N)=C(N)Oc4n[nH]c(C)c43)ccc21 (stereo not shown) [SR-01000465824] | < 4.93 | −11.98 ± 3.62 |  |  |
| 0.80 | 0.80 | 0.28 |  | 1.75 | 1.75 | < 5.82 | 96.78 ± 10.47 |  |  |  |  |  | Cc1cccc(-n2cnc3cc(C(=O)NCc4ccc5c(c4)OCO5)ccc32)c1 [SR-01000579592] |  | −14.67 ± 10.75 | < 4.88 |  |
| 0.79 | 0.79 | 0.35 | 0.64 | 1.87 | 1.86 | 5.92 | 67.60 ± 3.63 |  |  |  |  |  | CCN1CCCc2cc(CCNC(=O)Nc3ccccc3)ccc21 [SR-01000923250] |  | −2.96 ± 8.90 | < 4.85 |  |
| 3.35 | 3.35 | 0.47 |  | 3.74 | 3.74 | < 5.36 | 177.62 ± 11.26 |  |  |  |  |  | Nc1ccc2c(C(F)(F)F)cc(=O)oc2c1 [SR-01000597171] | 4.97 | 92.06 ± 10.88 |  | Hill Slope (parental HEK cells; HEK Agonist Activity section): 2.90 |
| 1.83 | 1.83 | 0.41 | 1.17 | 3.39 | 3.39 | 6.41 | 83.52 ± 6.71 |  |  |  |  |  | O=C(CCc1ccccc1)Nc1nnc(Cc2cccs2)o1 [SR-01000920660] |  | −18.29 ± 7.41 | < 4.85 |  |
| 2.90 | 1.91 | 0.32 | 0.44 | 4.08 | 3.09 | 6.03 | 83.76 ± 7.63 |  |  |  |  |  | O=C(Cn1ccc2ccccc21)NC1CCN(Cc2ccccc2)CC1 [SR-01000925700] |  | 10.33 ± 2.07 | < 4.85 |  |
|  |  |  |  |  |  |  | 90.30 ± 31.36 | 5.98 | 5.98 | 0.72 | 0.36 | 7.44 | CCn1c(=O)n(CC(=O)NCC2COc3ccccc3O2)c(=O)c2ccccc21 (stereo not shown) [SR-01000589950] |  |  |  | Lipophilic Efficiency (logD) (parental HEK cells; HEK Agonist Activity): 3.39; Lipophilic Efficiency (logP) (parental HEK cells; HEK Agonist Activity): 3.39; Averaged Max % Response (±St. Dev.) (parental HEK cells; HEK Agonist Activity): −9.62 ± 21.31%; pEC50 (parental HEK cells; Homo sapiens, HEK293, HEK Agonist Activity, parental non-transfected HEK cells): < 4.85 |
